Results reported in the NIST ThermoML archive (doi:10.1021/je060411g).

Assay: molar heat capacity at constant pressure
Details: 101.33 kPa

CC(C)(C)CO [2,2-dimethyl-1-propanol]
Details	molar heat capacity at constant pressure [J/K/mol]
6.04 K, Crystal 2, Vacuum adiabatic calorimetry	1.42
6.22 K, Crystal 2, Vacuum adiabatic calorimetry	1.34
6.72 K, Crystal 2, Vacuum adiabatic calorimetry	1.62
6.93 K, Crystal 2, Vacuum adiabatic calorimetry	1.79
7.63 K, Crystal 2, Vacuum adiabatic calorimetry	2.48
7.66 K, Crystal 2, Vacuum adiabatic calorimetry	2.49
8.46 K, Crystal 2, Vacuum adiabatic calorimetry	3.25
8.71 K, Crystal 2, Vacuum adiabatic calorimetry	3.26
9.38 K, Crystal 2, Vacuum adiabatic calorimetry	3.5
9.84 K, Crystal 2, Vacuum adiabatic calorimetry	3.94
10 K, Crystal 2	4.09
10.52 K, Crystal 2, Vacuum adiabatic calorimetry	4.52
11.19 K, Crystal 2, Vacuum adiabatic calorimetry	4.61
11.74 K, Crystal 2, Vacuum adiabatic calorimetry	4.61
12.6 K, Crystal 2, Vacuum adiabatic calorimetry	5.48
12.96 K, Crystal 2, Vacuum adiabatic calorimetry	6.1
13.95 K, Crystal 2, Vacuum adiabatic calorimetry	7.71
14.12 K, Crystal 2, Vacuum adiabatic calorimetry	7.8
15 K, Crystal 2	9
15.22 K, Crystal 2, Vacuum adiabatic calorimetry	9.22
15.26 K, Crystal 2, Vacuum adiabatic calorimetry	9.22
16.54 K, Crystal 2, Vacuum adiabatic calorimetry	10.78
16.63 K, Crystal 2, Vacuum adiabatic calorimetry	10.92
17.89 K, Crystal 2, Vacuum adiabatic calorimetry	12.37
18.17 K, Crystal 2, Vacuum adiabatic calorimetry	12.68
19.28 K, Crystal 2, Vacuum adiabatic calorimetry	14.02
19.75 K, Crystal 2, Vacuum adiabatic calorimetry	14.6
20 K, Crystal 2	14.89
20.7 K, Crystal 2, Vacuum adiabatic calorimetry	15.68
21.36 K, Crystal 2, Vacuum adiabatic calorimetry	16.44
22.16 K, Crystal 2, Vacuum adiabatic calorimetry	17.26
23.02 K, Crystal 2, Vacuum adiabatic calorimetry	18.27
23.65 K, Crystal 2, Vacuum adiabatic calorimetry	18.89
24.72 K, Crystal 2, Vacuum adiabatic calorimetry	20.07
25 K, Crystal 2	20.35
25.17 K, Crystal 2, Vacuum adiabatic calorimetry	20.52
26.45 K, Crystal 2, Vacuum adiabatic calorimetry	21.86
26.71 K, Crystal 2, Vacuum adiabatic calorimetry	22.12
27.26 K, Crystal 2, Vacuum adiabatic calorimetry	22.45
27.45 K, Crystal 2, Vacuum adiabatic calorimetry	22.66
28.26 K, Crystal 2, Vacuum adiabatic calorimetry	23.73
28.44 K, Crystal 2, Vacuum adiabatic calorimetry	23.84
29.84 K, Crystal 2, Vacuum adiabatic calorimetry	25.29
30 K, Crystal 2	25.41
30.14 K, Crystal 2, Vacuum adiabatic calorimetry	25.52
31.75 K, Crystal 2, Vacuum adiabatic calorimetry	26.93
33.36 K, Crystal 2, Vacuum adiabatic calorimetry	28.48
35 K, Crystal 2	29.8
35.01 K, Crystal 2, Vacuum adiabatic calorimetry	29.81
36.67 K, Crystal 2, Vacuum adiabatic calorimetry	31.13
38.35 K, Crystal 2, Vacuum adiabatic calorimetry	32.76
40 K, Crystal 2	33.67
40.05 K, Crystal 2, Vacuum adiabatic calorimetry	33.71
41.77 K, Crystal 2, Vacuum adiabatic calorimetry	34.97
43.5 K, Crystal 2, Vacuum adiabatic calorimetry	36.21
45 K, Crystal 2	37.23
45.25 K, Crystal 2, Vacuum adiabatic calorimetry	37.39
47.01 K, Crystal 2, Vacuum adiabatic calorimetry	38.58
48.78 K, Crystal 2, Vacuum adiabatic calorimetry	39.8
50 K, Crystal 2	40.59
50.56 K, Crystal 2, Vacuum adiabatic calorimetry	40.96
52.36 K, Crystal 2, Vacuum adiabatic calorimetry	42.15
54.16 K, Crystal 2, Vacuum adiabatic calorimetry	43.42
55 K, Crystal 2	43.96
55.98 K, Crystal 2, Vacuum adiabatic calorimetry	44.6
57.81 K, Crystal 2, Vacuum adiabatic calorimetry	45.76
59.64 K, Crystal 2, Vacuum adiabatic calorimetry	46.96
60 K, Crystal 2	47.18
61.49 K, Crystal 2, Vacuum adiabatic calorimetry	48
63.34 K, Crystal 2, Vacuum adiabatic calorimetry	48.9
65 K, Crystal 2	49.1
65.21 K, Crystal 2, Vacuum adiabatic calorimetry	49.05
67.11 K, Crystal 2, Vacuum adiabatic calorimetry	48.13
69.02 K, Crystal 2, Vacuum adiabatic calorimetry	47.57
70 K, Crystal 2	49.5
70.93 K, Crystal 2, Vacuum adiabatic calorimetry	51.84
72.82 K, Crystal 2, Vacuum adiabatic calorimetry	53.62
74.71 K, Crystal 2, Vacuum adiabatic calorimetry	54.48
75 K, Crystal 2	54.63
76.62 K, Crystal 2, Vacuum adiabatic calorimetry	55.54
78.53 K, Crystal 2, Vacuum adiabatic calorimetry	57.23
80 K, Crystal 2	58.6
80.43 K, Crystal 2, Vacuum adiabatic calorimetry	58.98
82.34 K, Crystal 2, Vacuum adiabatic calorimetry	59.82
84.25 K, Crystal 2, Vacuum adiabatic calorimetry	60.91
85 K, Crystal 2	61.31
86.17 K, Crystal 2, Vacuum adiabatic calorimetry	61.94
88.09 K, Crystal 2, Vacuum adiabatic calorimetry	63.01
90 K, Crystal 2	64.25
90.01 K, Crystal 2, Vacuum adiabatic calorimetry	64.26
91.94 K, Crystal 2, Vacuum adiabatic calorimetry	65.3
93.72 K, Crystal 2, Vacuum adiabatic calorimetry	66.04
93.87 K, Crystal 2, Vacuum adiabatic calorimetry	66.34
93.99 K, Crystal 2, Vacuum adiabatic calorimetry	65.67
95 K, Crystal 2	66.91
95.11 K, Crystal 2, Vacuum adiabatic calorimetry	67.03
95.8 K, Crystal 2, Vacuum adiabatic calorimetry	67.7
97.08 K, Crystal 2, Vacuum adiabatic calorimetry	68.3
97.74 K, Crystal 2, Vacuum adiabatic calorimetry	68.54
99.03 K, Crystal 2, Vacuum adiabatic calorimetry	69.37
99.68 K, Crystal 2, Vacuum adiabatic calorimetry	69.74
100 K, Crystal 2	69.96
100.97 K, Crystal 2, Vacuum adiabatic calorimetry	70.67
102.92 K, Crystal 2, Vacuum adiabatic calorimetry	71.57
104.87 K, Crystal 2, Vacuum adiabatic calorimetry	72.73
105 K, Crystal 2	72.8
106.82 K, Crystal 2, Vacuum adiabatic calorimetry	73.77
108.77 K, Crystal 2, Vacuum adiabatic calorimetry	74.92
110 K, Crystal 2	75.58
110.72 K, Crystal 2, Vacuum adiabatic calorimetry	75.98
112.68 K, Crystal 2, Vacuum adiabatic calorimetry	77.06
114.63 K, Crystal 2, Vacuum adiabatic calorimetry	78.14
116.59 K, Crystal 2, Vacuum adiabatic calorimetry	79.23
118.55 K, Crystal 2, Vacuum adiabatic calorimetry	80.35
120 K, Crystal 2	81.21
120.51 K, Crystal 2, Vacuum adiabatic calorimetry	81.5
122.47 K, Crystal 2, Vacuum adiabatic calorimetry	82.44
124.43 K, Crystal 2, Vacuum adiabatic calorimetry	83.56
126.39 K, Crystal 2, Vacuum adiabatic calorimetry	84.65
128.36 K, Crystal 2, Vacuum adiabatic calorimetry	85.69
130 K, Crystal 2	86.6
130.32 K, Crystal 2, Vacuum adiabatic calorimetry	86.79
131.73 K, Crystal 2, Vacuum adiabatic calorimetry	87.42
132.15 K, Crystal 2, Vacuum adiabatic calorimetry	87.41
132.29 K, Crystal 2, Vacuum adiabatic calorimetry	87.89
133.36 K, Crystal 2, Vacuum adiabatic calorimetry	88.24
134.27 K, Crystal 2, Vacuum adiabatic calorimetry	88.87
135.34 K, Crystal 2, Vacuum adiabatic calorimetry	89.35
136.24 K, Crystal 2, Vacuum adiabatic calorimetry	89.94
137.31 K, Crystal 2, Vacuum adiabatic calorimetry	90.43
139.28 K, Crystal 2, Vacuum adiabatic calorimetry	91.45
140 K, Crystal 2	91.85
141.25 K, Crystal 2, Vacuum adiabatic calorimetry	92.54
143.22 K, Crystal 2, Vacuum adiabatic calorimetry	93.56
145.19 K, Crystal 2, Vacuum adiabatic calorimetry	94.64
147.17 K, Crystal 2, Vacuum adiabatic calorimetry	95.67
149.14 K, Crystal 2, Vacuum adiabatic calorimetry	96.7
150 K, Crystal 2	97.11
151.11 K, Crystal 2, Vacuum adiabatic calorimetry	97.64
153.09 K, Crystal 2, Vacuum adiabatic calorimetry	98.81
155.06 K, Crystal 2, Vacuum adiabatic calorimetry	99.89
157.04 K, Crystal 2, Vacuum adiabatic calorimetry	100.86
159.01 K, Crystal 2, Vacuum adiabatic calorimetry	101.85
160 K, Crystal 2	102.4
160.99 K, Crystal 2, Vacuum adiabatic calorimetry	102.94
162.97 K, Crystal 2, Vacuum adiabatic calorimetry	104.04
164.94 K, Crystal 2, Vacuum adiabatic calorimetry	104.98
166.92 K, Crystal 2, Vacuum adiabatic calorimetry	106.04
168.9 K, Crystal 2, Vacuum adiabatic calorimetry	107.14
170 K, Crystal 2	107.8
170.88 K, Crystal 2, Vacuum adiabatic calorimetry	108.23
172.86 K, Crystal 2, Vacuum adiabatic calorimetry	109.18
174.83 K, Crystal 2, Vacuum adiabatic calorimetry	110.28
176.81 K, Crystal 2, Vacuum adiabatic calorimetry	111.23
178.79 K, Crystal 2, Vacuum adiabatic calorimetry	112.41
180 K, Crystal 2	113.1
180.77 K, Crystal 2, Vacuum adiabatic calorimetry	113.61
182.75 K, Crystal 2, Vacuum adiabatic calorimetry	115.04
184.73 K, Crystal 2, Vacuum adiabatic calorimetry	115.99
186.72 K, Crystal 2, Vacuum adiabatic calorimetry	117.16
188.7 K, Crystal 2, Vacuum adiabatic calorimetry	118.27
190 K, Crystal 2	119.2
190.69 K, Crystal 2, Vacuum adiabatic calorimetry	119.62
192.68 K, Crystal 2, Vacuum adiabatic calorimetry	120.83
194.67 K, Crystal 2, Vacuum adiabatic calorimetry	122.08
196.66 K, Crystal 2, Vacuum adiabatic calorimetry	123.36
198.66 K, Crystal 2, Vacuum adiabatic calorimetry	124.74
200 K, Crystal 2	125.7
200.66 K, Crystal 2, Vacuum adiabatic calorimetry	126.14
202.67 K, Crystal 2, Vacuum adiabatic calorimetry	127.38
204.67 K, Crystal 2, Vacuum adiabatic calorimetry	128.75
206.68 K, Crystal 2, Vacuum adiabatic calorimetry	130.08
208.7 K, Crystal 2, Vacuum adiabatic calorimetry	131.55
210 K, Crystal 2	132.5
210.71 K, Crystal 2, Vacuum adiabatic calorimetry	132.96
212.71 K, Crystal 2, Vacuum adiabatic calorimetry	134.53
214.72 K, Crystal 2, Vacuum adiabatic calorimetry	136.27
216.71 K, Crystal 2, Vacuum adiabatic calorimetry	138.22
220 K, Crystal 2	145
237.42 K, Crystal 1	158.16
239.45 K, Crystal 1	159.61
240 K, Crystal 1	160.1
241.42 K, Crystal 1	161.17
243.4 K, Crystal 1	162.58
245.38 K, Crystal 1	163.87
247.36 K, Crystal 1	165.12
249.33 K, Crystal 1	166.8
250 K, Crystal 1	167.3
251.31 K, Crystal 1	168.24
253.28 K, Crystal 1	169.62
255.26 K, Crystal 1	171.23
257.24 K, Crystal 1	172.85
259.21 K, Crystal 1	174.64
260 K, Crystal 1	175.3
261.18 K, Crystal 1	176.19
263.15 K, Crystal 1	177.74
265.1 K, Crystal 1	179.42
267.05 K, Crystal 1	181.32
268.99 K, Crystal 1	183.18
270 K, Crystal 1	184
270.93 K, Crystal 1	184.74
272.86 K, Crystal 1	186.95
274.77 K, Crystal 1	188.7
276.68 K, Crystal 1	190.91
278.57 K, Crystal 1	192.85
280 K, Crystal 1	194.5
280.46 K, Crystal 1	195.04
282.33 K, Crystal 1	197.11
284.2 K, Crystal 1	199.17
286.05 K, Crystal 1	201.41
287.9 K, Crystal 1	203.48
289.73 K, Crystal 1	205.72
290 K, Crystal 1	206
291.56 K, Crystal 1	207.85
293.37 K, Crystal 1	211.16
295.17 K, Crystal 1	213.27
298.15 K, Crystal 1	214.3
300 K, Crystal 1	216.4
310 K, Crystal 1	227.8
328.08 K, Liquid	267.44
329.23 K, Liquid	268.95
330 K, Liquid	256.6
330.33 K, Liquid	267.74
330.38 K, Liquid	270.44
331.53 K, Liquid	271.12
331.59 K, Liquid	268.59
332.68 K, Liquid	271.99
332.84 K, Liquid	269.67
333.82 K, Liquid	273.19
334.1 K, Liquid	271.2
334.97 K, Liquid	273.8
335.35 K, Liquid	272.07
336.11 K, Liquid	274.9
336.6 K, Liquid	273.27
337.25 K, Liquid	276.23
337.86 K, Liquid	274.28
338.39 K, Liquid	277.22
339.12 K, Liquid	275.37
339.52 K, Liquid	278.09
340 K, Liquid	277.1
340.38 K, Liquid	276.53
340.66 K, Liquid	278.87
341.64 K, Liquid	277.24
341.79 K, Liquid	279.67
342.91 K, Liquid	278.19
342.92 K, Liquid	280.81
344.05 K, Liquid	281.29
344.18 K, Liquid	279.29
345.18 K, Liquid	282
345.46 K, Liquid	280.32
346.75 K, Liquid	281.22
348.04 K, Liquid	282.21
349.35 K, Liquid	283.25
350 K, Liquid	283.8
350.67 K, Liquid	284.33
352.01 K, Liquid	285.41
353.37 K, Liquid	286.57
354.74 K, Liquid	285.99
356.13 K, Liquid	288.33
357.55 K, Liquid	289.27
358.99 K, Liquid	289.94
360 K, Liquid	290.2
360.45 K, Liquid	290.3
361.93 K, Liquid	290.05
363.41 K, Liquid	288.87
364.86 K, Liquid	286.3
366.24 K, Liquid	283
367.51 K, Liquid	296.63
368.71 K, Liquid	295.14
369.9 K, Liquid	295.38
370 K, Liquid	295.4
371.09 K, Liquid	296.21
372.27 K, Liquid	296.96
373.45 K, Liquid	297.66
374.63 K, Liquid	298.2
375.81 K, Liquid	298.87
376.99 K, Liquid	299.38
378.17 K, Liquid	299.76
379.34 K, Liquid	300.28
380.52 K, Liquid	300.53
